From US12133857B2, “Method for prolonging half-life of theanine in vivo” (Anhui Agricultural University, priority 2023, dated 2024)

Legend:
[1] = in vivo; conditions: mouse, po, 500 mg/kg
Experimental: 1-deoxy-1-L-theanine-D-fructopyranose was recorded as a theanine glycoside 1, 1-deoxy-1-L-theanine-D-galactopyranose was recorded as a theanine glycoside 2, and 1-deoxy-1-L-theanine-D-ribopyranose was recorded as a theanine glycoside 3. • 1. Experimental animals: Male C57BL/6J mice with the body weight of (20±2) g were used. • 2. Administration and sample collection: The mice were intragastrically administered (n=6), which were randomly divided into two groups, including a theanine group and a theanine glycoside group. The mice were subjected to fasting without limitation of water for 12 h before administration and then allowed to drink water after intragastric administration. The intragastric administration dose was 500 mg/kg. 1 h, 2 h, 4 h, 8 h and 12 h before and after the administration, 6 mice in each group were killed by cervical dislocation and then dissected to obtain brain tissues respectively, and the brain tissues were stored at −80° C. for subsequent detection. • 3. Instrument conditions and determination of brain tissue samples:
(§1) Instrument: SCIEX Triple Quad™ 5500 LC-MS/MS was used.
Drawing of a standard curve: 20 mg of blank brain tissues of the mice were taken, added into 1.5 mL of a 70% methanol aqueous solution and mixed in vortex for 30 s, and a resulting mixture was subjected to ultrasonic treatment in an ice water bath for 10 min, followed by standing at −20° C. for 20 min to precipitate a protein. The protein was centrifuged briefly for 15 s for 2 times, and a supernatant was taken out, dried by a vacuum concentrator at 4° C. and redissolved with 200 μL of methanol. 200 μl of a series of standard solutions of a tested compound and 10 μl of an internal standard (DL-4-chlorophenylmethylamino) were sequentially added to prepare brain tissue samples of the tested compound with a brain tissue concentration of 0.1 μM, 1 μM, 10 μM, 100 μM, 1,000 μM and 10,000 μM respectively, followed by LC-MS/MS analysis. With the concentration of the tested compound (x) as the abscissa and the ratio of peak areas of the tested compound and the internal standard (y) as the ordinate, regression calculation was performed by a weighted least square method to obtain a linear regression equation, namely a standard curve. According to the standard curve, the linear range of the tested compound in the plasma of the mice was 0.1 μM-10,000 μM as determined by an LC/MS/MS method. […]

[2] = in vivo; conditions: rat, po, 500 mg/kg
Experimental: 1-deoxy-1-L-theanine-D-fructopyranose was recorded as a theanine glycoside 1, 1-deoxy-1-L-theanine-D-galactopyranose was recorded as a theanine glycoside 2, and 1-deoxy-1-L-theanine-D-ribopyranose was recorded as a theanine glycoside 3. • 1. Experimental animals: Male SD rats with the body weight of (180±20) g were used. • 2. Administration and sample collection: The rats were intragastrically administered (n=6), which were randomly divided into two groups, including a theanine group and a theanine glycoside group. The rats were subjected to fasting without limitation of water for 12 h before administration and then allowed to drink water after intragastric administration. The intragastric administration dose was 500 mg/kg. 1 h, 2 h, 4 h, 8 h and 12 h before and after the administration, 0.5 mL of blood was collected from eye sockets of 6 rats in each group, respectively. Blood samples were centrifuged at 3,000 g for 15 min, supernatants were separated to obtain plasma samples, and the plasma samples were stored at −80° C. • 3. Instrument conditions and determination of plasma samples:
as §1
Drawing of a standard curve: 100 μL of blank plasma of the rats was taken, added into 1.5 mL of a 70% methanol aqueous solution and mixed in vortex for 30 s, and a resulting mixture was subjected to ultrasonic treatment in an ice water bath for 10 min, followed by standing at −20° C. for 20 min to precipitate a protein. The protein was centrifuged briefly for 15 s for 2 times, and a supernatant was taken out, dried by a vacuum concentrator at 4° C. and redissolved with 200 μl of methanol. 200 μL of a series of standard solutions of a tested compound and 10 μL of an internal standard (DL-4-chlorophenylmethylamino) were sequentially added to prepare plasma samples of the tested compound with a plasma concentration of 0.1 μM, 1 μM, 10 μM, 100 μM, 1,000 μM and 10,000 μM respectively, followed by LC-MS/MS analysis. With the concentration of the tested compound (x) as the abscissa and the ratio of peak areas of the tested compound and the internal standard (y) as the ordinate, regression calculation was performed by a weighted least square method to obtain a linear regression equation, namely a standard curve. According to the standard curve, the linear range of the tested compound in the plasma of the rats was 0.1 μM-10,000 μM as determined by an LC-MS/MS method. […]
The half-life T1/2 was calculated according to formulas below: […]

T1/2 in the brain [1] | T1/2 in the blood [2] | half-life ([1]; male, C57BL/6J) | half-life ([2]; male, SD) | Structure (SMILES)
19.56 ± 1.54 h | 25.70 ± 1.31 h |  |  | CCNC(=O)CC[C@H](NCC1(O)OC[C@@H](O)[C@@H](O)[C@@H]1O)C(=O)O (stereo partly drawn) [Theanine glycoside 1, 1-deoxy-1-L-theanine-D-fructopyranose]
 |  | 2.07 ± 0.19 h | 2.05 ± 0.12 h | CCNC(=O)CC[C@H](N)C(=O)O [Theanine, L-theanine]
13.55 ± 1.55 h | 19.94 ± 1.06 h |  |  | CCNC(=O)CC[C@H](NC1O[C@H](CO)[C@H](O)[C@H](O)[C@H]1O)C(=O)O (stereo partly drawn) [Theanine glycoside 2, 1-deoxy-1-L-theanine-D-galactopyranose]
10.85 ± 0.54 h | 16.80 ± 1.93 h |  |  | CCNC(=O)CC[C@H](NC1OC[C@@H](O)[C@@H](O)[C@H]1O)C(=O)O (stereo partly drawn) [Theanine glycoside 3, 1-deoxy-1-L-theanine-D-ribopyranose]
